Measured values reported in PMC11873650 (Acta Pharmaceutica Sinica. B, 2024).

How the values were obtained:
[1] = target: phosphorylated PAK4 (p-PAK4) (Homo sapiens, UniProt O96013); experiment: Western blot of PAK4 phosphorylation in MIA PaCa-2 cells; format: cell-based; conditions: for level of p-PAK4: MIA PaCa-2 cells, 1 μmol/L, 72 h
[2] = tested on: phosphorylated β-Catenin (p-β-Catenin); experiment: Western blot of β-Catenin phosphorylation in MIA PaCa-2 cells; format: cell-based, human; conditions: for level of p-β-Catenin: MIA PaCa-2 cells, 1 μmol/L, 72 h
[3] = Pharmacokinetics in rats; format: in vivo; conditions: rat, plasma
[4] = tested on: Pan02 allograft; experiment: Pan02 syngeneic model; format: in vivo, C57BL/6 mice; conditions: 100 mg/kg intraperitoneally three times per five days, 26 days
[5] = tested on: MIA PaCa-2 xenograft; conditions: 100 mg/kg q.d. intraperitoneally

phosphorylated PAK4 (p-PAK4), sequence (O96013 whole entry): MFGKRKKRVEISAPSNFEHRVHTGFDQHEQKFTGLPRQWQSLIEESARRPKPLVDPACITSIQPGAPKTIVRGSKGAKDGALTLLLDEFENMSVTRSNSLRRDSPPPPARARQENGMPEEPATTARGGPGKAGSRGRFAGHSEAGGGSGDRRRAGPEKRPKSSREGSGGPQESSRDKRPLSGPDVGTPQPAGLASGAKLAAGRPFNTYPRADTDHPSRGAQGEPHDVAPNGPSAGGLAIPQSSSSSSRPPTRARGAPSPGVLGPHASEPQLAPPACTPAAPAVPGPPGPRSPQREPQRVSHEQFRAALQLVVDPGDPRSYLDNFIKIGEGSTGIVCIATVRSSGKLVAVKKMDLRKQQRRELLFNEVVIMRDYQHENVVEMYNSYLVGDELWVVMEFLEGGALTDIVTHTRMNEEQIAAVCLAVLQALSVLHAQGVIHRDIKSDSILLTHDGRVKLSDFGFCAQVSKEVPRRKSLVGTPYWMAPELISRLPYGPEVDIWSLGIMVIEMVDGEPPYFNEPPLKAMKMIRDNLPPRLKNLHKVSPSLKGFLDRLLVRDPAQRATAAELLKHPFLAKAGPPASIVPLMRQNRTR

Compound | level of p-PAK4 [1] | level of p-β-Catenin [2] | IC50 [1] | IC50 ([2]; Homo sapiens, MIA PaCa-2, 72 h, read-out: IC50 against p-β-Catenin) | AUC(0-t) ([3]; iv, 1 mg/kg) | AUC(0-t) ([3]; po, 3 mg/kg) | tumor growth inhibition [4] | mortality ([5]; 20-day study) | tumor growth inhibition rate (TGI) ([5]; 20 days)
Nc1ccc(/C=C/C(=O)N2CCc3c(oc4c(-c5ccc(F)cc5)cc(-c5ccc(C(=O)N6CCC(F)(F)CC6)nn5)cc34)C2)cn1 [Compound 18, (E)-3-(6-Aminopyridin-3-yl)-1-(6-(6-(4,4-difluoropiperidine-1-carbonyl)pyridazin-3-yl)-8-(4-fluorophenyl)-3,4-dihydrobenzofuro[2,3-c]pyridin-2(1H)-yl)prop-2-en-1-one] | superior to 4 | superior to 4 |  |  |  |  |  |  | 
Nc1ccc(/C=C/C(=O)NCc2cc3cc(-c4ccc(C(=O)N5CCC(F)(F)CC5)cc4)cc(-c4ccc(F)cc4)c3o2)cn1 [Compound 4] |  |  | 1890 nM | 2070 nM | 94400 ng·h/mL | 55500 ng·h/mL | modest tumor growth inhibition | two mice | 77.8%
Nc1ccc(/C=C/C(=O)N2CCc3c(oc4c(-c5ccc(F)cc5)cc(-c5ccc(C(=O)N6CCOCC6)nn5)cc34)C2)cn1 [Compound 19, (E)-3-(6-Aminopyridin-3-yl)-1-(8-(4-fluorophenyl)-6-(6-(morpholine-4-carbonyl)pyridazin-3-yl)-3,4-dihydrobenzofuro[2,3-c]pyridin-2(1H)-yl)prop-2-en-1-one] | superior to 4 | superior to 4 |  |  |  |  |  |  | 
